pEC50, pIC50: −log10 of the molar value. Where “and” joins values, the source holds several entries; their conditions need not be identical. Identical values can stand only once.
How the values were obtained:
[1] = target: HIS-Keap1 full length / Biotin-Nrf2 (16-mer) (Homo sapiens, UniProt Q14145); test: biochemical
[2] = test system: NQO1 activation in BEAS-2B cells; test: BEAS-2B cellular MTT assay of NQO1 activation, 0.3% HSA; format: cell-based
Procedure, shortened: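 MTT read-out in BEAS-2B cells grown in BEBM with SingleQuots, no GA-1000, kept below 70% confluence; plates coated with collagen, with 0.3% or 0% HSA medium, seeded to 95-100% confluency at 48 h, 37 °C, 5% CO2.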

[3] = test system: NQO1 activation in BEAS-2B cells; test: BEAS-2B cellular MTT assay of NQO1 activation, 0% HSA; format: cell-based
Procedure, shortened: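 For the 0% HSA condition, cells were seeded into collagen plates in HSA-free medium. Culture was BEAS-2B in BEBM plus BEGM SingleQuots lacking GA-1000, held under 70% confluence, at a seeding density reaching 95-100% confluence by 48 h.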

[4] = BEAS+ W, read-out: BEAS+ W EC50
[5] = Homo sapiens, BEAS+ W, read-out: BEAS+ W EC50
[6] = Homo sapiens, Serum Free W, read-out: BEAS EC50 (nM) Serum Free W
[7] = Serum Free W, read-out: BEAS EC50 (nM) Serum Free W
[8] = Homo sapiens, BEAS+, read-out: BEAS+ EC50
[9] = Homo sapiens, serum free, read-out: BEAS EC50 (nM) serum free
[10] = serum free, read-out: BEAS EC50 (nM) serum free

HIS-Keap1 full length / Biotin-Nrf2 (16-mer), sequence (Q14145 whole entry): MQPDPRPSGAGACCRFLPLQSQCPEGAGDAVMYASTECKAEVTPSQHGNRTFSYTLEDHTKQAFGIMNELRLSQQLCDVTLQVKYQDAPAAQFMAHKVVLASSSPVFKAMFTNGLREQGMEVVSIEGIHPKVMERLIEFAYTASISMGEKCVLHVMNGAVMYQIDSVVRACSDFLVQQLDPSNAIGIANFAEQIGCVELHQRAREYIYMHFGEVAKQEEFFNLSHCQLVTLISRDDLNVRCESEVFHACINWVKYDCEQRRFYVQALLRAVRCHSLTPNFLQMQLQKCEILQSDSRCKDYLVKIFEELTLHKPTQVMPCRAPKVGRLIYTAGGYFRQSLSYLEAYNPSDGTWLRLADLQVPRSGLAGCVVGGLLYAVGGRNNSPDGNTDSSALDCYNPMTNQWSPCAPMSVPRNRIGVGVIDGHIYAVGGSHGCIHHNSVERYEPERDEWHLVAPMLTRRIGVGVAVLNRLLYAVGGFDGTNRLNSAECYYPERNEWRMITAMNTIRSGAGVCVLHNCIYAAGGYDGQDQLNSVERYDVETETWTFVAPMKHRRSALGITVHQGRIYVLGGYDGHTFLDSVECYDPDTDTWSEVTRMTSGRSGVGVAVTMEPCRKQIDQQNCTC

SMILES	pIC50 [1]	pEC50 [2, 4]	pEC50 [2, 5]	EC50 [3, 6] [nM]	EC50 [3, 7] [nM]	IC50 [1]	pEC50 ([2]; BEAS+, read-out: BEAS+ EC50)	pEC50 [2, 8]	EC50 [3, 9] [nM]	EC50 [3, 10]
Cc1c2ccc3c1nnn3CCCCCc1ccc(cc1OC(F)F)C(=O)N1CCc3ccc(cc3C1)[C@@H]2CC(=O)O [Compound 38]	9.40 and 9.52	7.77	7.82	4.8	4.5	–	–	–	–	–
Cc1cc2cnc1OCC/C=C/Cc1ccc(cc1)C(=O)N1CCc3ccc(cc3C1)[C@@H]2[C@@H](C)C(=O)O [Compound 83]	5.35 and 5.41	5.07	< 5.00	> 1000	1780	–	–	–	–	–
Cc1c2ccc3c1nnn3CCCCCCc1ccc(c3cccnc13)C(=O)N1CCc3ccc(cc3C1)[C@@H]2CC(=O)O [Compound 48]	10.00 and 9.70	7.62	7.58	12	9.1	–	–	–	–	–
Cc1cc2ncc1C(CC(=O)O)c1ccc3c(c1)CN(CC3)C(=O)c1c(F)cc(cc1F)CCCCCO2 (centres unmarked) [Compound 161]	–	–	–	–	–	2.5 nM and 2.3 nM and 1 nM (2×)	8.22 and 8.12 and 8.28	8.11	1.4	0.7 nM and 1.1 nM
O=C(O)CC1c2cnc(nc2)OCCCCOc2ccc(cc2)C(=O)N2CCc3ccc1cc3C2 (centres unmarked) [Compound 183]	6.19 and 6.24	–	< 5.00	> 1000	–	–	–	–	–	–
O=C(O)CC1c2ccc(cc2)OCCCCCc2ccc(cc2)C(=O)N2CCc3ccc1cc3C2 (centres unmarked) [Compound 396]	7.02 and 6.86	–	–	–	–	–	6.75	6.69	80.5	78.2 nM
Cc1cc2ccc1C(=O)N1CCc3ccc(cc3C1)[C@@H](CC(=O)O)c1ccc3c(c1)nnn3CCCCCCO2 [Compound 327]	9.10 and 8.64	–	–	–	–	–	–	6.75	52.9	46.9 nM
O=C(O)C[C@H]1c2cnc(nc2)OCCCCCc2c(F)c(F)c(c(F)c2F)C(=O)N2CCc3ccc1cc3C2 [Compound 45]	6.64 and 6.61	–	< 5.00	> 1000	–	–	–	–	–	–
Cc1c2cnc3c1nnn3CCCCCc1cc(F)c(c(F)c1)C(=O)N1CCc3ccc(cc3C1)[C@@H]2CC(=O)O [Compound 136]	8.85 and 8.89	–	–	–	–	–	7.61	7.82	10	7.3 nM
Cc1cc2ccc1C(=O)N1CCc3ccc(cc3C1)C(CC(=O)O)c1cnc3c(nnn3CCCCCC2)c1C (centres unmarked) [Compound 170]	8.20 and 8.19	–	–	–	–	–	7.27	7.30	28.3	20.4 nM
Cc1c2ccc3c1nnn3CCCCCCOc1ccc(cc1)C(=O)N1CCc3ccc(cc3C1)[C@@H]2[C@H](C)C(=O)O [Compound 179]	8.24	–	–	–	–	–	6.68	6.63	113	91.5 nM
CC(C(=O)O)C1c2ccc3c(c2)CN(CC3)C(=O)c2ccc(cc2)OCCCCCn2nnc3cc1ccc32 (centres unmarked) [Compound 325]	> 10.00	–	–	–	–	–	–	8.40	2.9	–
Cc1c2ccc3c1nnn3CCCCCCn1cc(c3ccccc31)C(=O)N1CCc3ccc(cc3C1)C2CC(=O)O (centres unmarked) [Compound 373]	8.44 and 8.41	–	–	–	–	–	5.50	5.69	2070	2030 nM
COc1cc2ccc1CCCCCCn1nnc3c(C)c(ccc31)C(CC(=O)O)c1ccc3c(c1)CN(CC3)C2=O (centres unmarked) [Compound 189]	7.64 and 7.63	–	–	–	–	–	7.80	7.73	4.4	6 nM
Cc1c2cnc3c1nnn3CCCCCCOc1cc(F)c(c(F)c1)C(=O)N1CCc3ccc(cc3C1)C2CC(=O)O (centres unmarked) [Compound 128]	9.00 and 8.85	7.33	7.51	9.8	7.1	–	7.69	7.75	14.2	12.2 nM
O=C(O)CC1c2ccc3c(c2)CN(CC3)C(=O)c2ccc(c3ccccc23)OCCCCCn2nnc3cc1ccc32 (centres unmarked) [Compound 337]	9.15 and 9.10	–	–	–	–	–	–	5.60	1890	–
Cc1c2ccc3c1nnn3CCCCCOc1ccc(cc1)C(=O)N1CCc3ccc(cc3C1)C2CC(=O)O (centres unmarked) [Compound 331]	8.77 and 8.37 and 8.59 and 7.96	–	–	–	–	–	–	7.39	47.4	–
Cc1c2ccc3c1nnn3CCCCCCn1ccc3ccc(cc31)C(=O)N1CCc3ccc(cc3C1)C2CC(=O)O (centres unmarked) [Compound 394]	8.05 and 7.98	–	–	–	–	–	5.54	5.57	3100	2900 nM
COc1cc2ccc1CCCCCCn1nnc3c(C)c(cnc31)C(CC(=O)O)c1ccc3c(c1)CN(CC3)C2=O (centres unmarked) [Compound 104]	9.70 and 9.52 and 8.77 and 8.80	6.88	6.83	30	36.5	–	7.72	7.79	9.3	7.4 nM
Cc1cc2ccc1C(=O)N1CCc3ccc(cc3C1)[C@@H](CC(=O)O)c1ccc3c(nnn3CCC/C=C/C2)c1C [Compound 392]	9.30	–	–	–	–	–	7.81	7.86	10.6	10.3 nM
Cc1c2ccc3c1nnn3CCCCCCOc1ccc(c(F)c1F)C(=O)N1CCc3ccc(cc3C1)C2CC(=O)O (centres unmarked) [Compound 318]	9.10	–	–	–	–	–	–	7.23	20.4	–
Cc1cc2ccc1C(=O)N1CCc3ccc(cc3C1)C(CC(=O)O)c1cnc(cc1C)OCCCCO2 (centres unmarked) [Compound 151]	8.62 and 8.57	–	–	–	–	–	6.92	6.64	216	170 nM
Cc1c2ccc3c1nnn3CCCOCCOc1ccc(c(F)c1)C(=O)N1CCc3ccc(cc3C1)C2CC(=O)O (centres unmarked) [Compound 383]	9.05	–	–	–	–	–	6.73	6.71	179	162 nM
COCCn1c2cc3cc(ccc31)CCCCCCn1nnc3c(C)c(ccc31)[C@@H](CC(=O)O)c1ccc3c(c1)CN(CC3)C2=O [Compound 85]	8.80 and 8.92	6.61	6.60	39.4	61.3	–	–	–	–	–
C[C@H](C(=O)O)[C@@H]1c2ccc3c(c2)CN(CC3)C(=O)c2ccc(cc2)OCCCCCn2nnc3cc1ccc32 [Compound 231]	8.49	–	–	–	–	–	6.64	6.56	153	228 nM
O=C(O)CC1c2ccc3c(c2)CN(CC3)C(=O)c2ccc3c(ccn3CCCCCCn3nnc4cc1ccc43)c2 (centres unmarked) [Compound 397]	7.86 and 7.83	–	–	–	–	–	5.67	5.82	597	659 nM
Cc1c2ccc3c1nnn3CCCCCc1ccc(cc1)C(=O)N1CCc3ccc(cc3C1)[C@H]2CC(=O)O [Compound 286]	9.15	–	–	–	–	–	–	7.35	15.8	–
COc1cc2ccc1CCCCCCn1nnc3c(C)c(ccc31)[C@H](CC(=O)O)c1ccc3c(c1)CN(CC3)C2=O [Compound 102]	8.35 and 8.38	6.98	6.93	25.1	24.6	–	–	–	–	–
Cc1c2ccc3c1nnn3CCCCCCOc1ccc(cc1)C(=O)N1CCc3ccc(cc3C1)C2CC(=O)O (centres unmarked) [Compound 247]	8.80 and 8.77	–	–	–	–	–	7.33	7.34	29.4	26.3 nM
Cc1c2ccc3c1nnn3CCCCCCOc1cnc(cn1)C(=O)N1CCc3ccc(cc3C1)C2CC(=O)O (centres unmarked) [Compound 379, 2-(34-methyl-22-oxo-17-oxa-8,9,10,19,23,32-hexazahexacyclo[21.5.3.218,21.13,7.06,10.026,30]tetratriaconta-1(29),3,5,7(34),8,18,20,26(30),27,32-decaen-2-yl)acetic Acid]	8.28 and 8.27	–	–	–	–	–	6.71	6.69	158	147 nM

Reference: patent US12692274B2, “Tetrahydroisoquinoline derivatives for the treatment of red blood disorders and inflammatory diseases” (Sanofi, priority 2020, dated 2026)
